Consider 2 compounds from US8961933B2, “Process for the preparation of aqueous solutions of hyperpolarized molecules” (Bracco Imaging S.p.A., priority 2008, dated 2015).

Series [1] in a line: Phase-transfer extraction of the hyperpolarized product into water: 13C signal enhancement and amount transferred. The format is physicochemical.
Experimental: After the field cycling application, the tube was quickly opened and 0.4 mL of degassed D2O were added; the tube was shaken vigorously for three seconds and then let stand for five seconds, during which phase separation occurred. The water solution was taken by a syringe and transferred into a tube for NMR acquisition.
Series [2] can be described thus: Solubility in water. The format is physicochemical. The following applies: compared with alkyne A. An excerpt: The symmetrical alkyne A, whose formula is reported below, was synthesized by transesterification of the acetylene bis-carboxylic acid bismethyl ester with diethyleneglycol monomethyl ether, in the presence of H2SO4 as catalyst.

On to `COCCOCCOC(=O)/C=C\C(=O)OCCOCCOC` [B], for which the “quantity transferred into the water phase” value in series [1] (CDCl3/acetone-d6 (6:1) versus D2O, equal volumes) is “about 10 % of the total”. In addition, the solubility in water result in series [2] was “higher than that of the alkyne A”.
For `O=C(O)CCC(=O)O` [succinic acid], the “transfer to the water phase” value in series [1] (after hydrolysis with 0.25 M NaOH in D2O, CDCl3/acetone-d6 6:1) was “All the succinic acid was transferred to the water phase”.
